In US9499509B2, “Dihydrochalcone derivatives and their use as antibiotic agents” (UNIVERSITÉ DU QUÉBEC À CHICOUTIMI, priority 2012, dated 2016):
Where two headings read alike, the source gives them in different places.

What was measured:
Streptococcus pyogenes = assay: Antibiotic assay (resazurin, Example 1), Streptococcus pyogenes; type: cell-based; conditions: for IC50: read-out: IC50
Experimental: (§1) Bacteria Strain. […] The MRSA were obtained as further described below.
(§2) Antibiotic agents. Cyprofloxacin and erythromycin were provided by Sigma-Aldrich. Gentamicin sulfate and vancomycin hydrochloride were provided by Calbiochem.
(§3) Five additional strains were tested: Streptococcus pneumoniae, Streptococcus agalactiae, Streptococcus pyogenes, Enterococcus faecalis and Corynebacterium jeikeium.

S. aureus = assay: Antibiotic assay (resazurin, Example 1), S. aureus strains of Table 3; type: cell-based, Staphylococcus aureus; conditions: for IC50: read-out: IC50
Description: as §1, §2

S. epidermidis = assay: Antibiotic assay (resazurin, Example 1), S. epidermidis strains
Experimental: The antibiotic assays were performed in 96-well plates (BD Falcon). The bacteria strains were inoculated in Nutrient Broth (BD) for the gram negative bacteria and Tryptic soy broth (BD) with 10% of defibrinated sheep blood (PML microbiological) for gram positive strain. All bacteria strains were dosed by spectrophotometry at 660 nm where 1 D.O=2×10^8 bacteria/mL. All bacteria were plated in their respective broth at a concentration of 450 000 bacteria/mL.
Compounds I, II and III were diluted in methanol and the above-noted antibiotic agents were diluted in water. The solvent concentration was 0.25%, which was not toxic for the bacteria. Compounds I, II and III and the above-noted antibiotic agents were tested at 8 different concentrations.
Each well contained: 100 μL of bacteria, 50 μL of the compounds tested (compound I, II, III or the above-noted antibiotic agent) and 50 μL of a 4% resazurin (Sigma) solution. The plates were incubated at 37° C. for 5 h. The fluorescence was read using a Fluoroskan Ascent™ FL (thermo) using an excitation wavelength of 530 nm and an emission wavelength of 590 nm.
Two different strains of Staphylococcus were tested, namely the S. epidermidis and the S. aureus strains.

Streptococcus agalactiae = assay: Antibiotic assay (resazurin, Example 1), Streptococcus agalactiae; type: cell-based; conditions: for IC50: read-out: IC50
Experimental: as §1, §2, §3

Enterococcus faecalis = assay: Antibiotic assay (resazurin, Example 1), Enterococcus faecalis; type: cell-based; conditions: for IC50: read-out: IC50
Experimental: as §1, §2, §3

WS-1 cell lines = assay: Cytotoxicity assay on WS-1 (Example 1); conditions: Table 5; WS-1, 48 h
Experimental: Cytotoxicity assay. The cytotoxicity assay was performed in 96-well plates (BD Falcon). The WS-1 cell lines were provided by ATCC. The WS-1 was cultured in DMEM+10% fetal calf serum. The cells were plated in a volume of 100 μL at a density of 5000 cells per well and incubated at 37° C.+5% CO2 for 24 h to promote cell adhesion.
The plates were incubated at 37° C.+5% CO2 for 48 h. The cells were then washed with 100 μL of HBSS and 150 μL of a 2% resazurin were added to the wells.
The therapeutic index is the ratio between the toxicity on normal cells, in this case fibroblast, and the toxicity on bacteria.

Corynebacterium jeikeium = assay: Antibiotic assay (resazurin, Example 1), Corynebacterium jeikeium; type: cell-based; conditions: Coryne. jeikeium 14139
Experimental: as §1, §2, §3

Streptococcus pneumoniae = assay: Antibiotic assay (resazurin, Example 1), Streptococcus pneumoniae; type: cell-based; conditions: for IC50: read-out: IC50
Experimental: as §1, §2, §3

[1] = tested on: methicillin-resistant Staphylococcus aureus (MRSA) strains; assay: Antibiotic assay (resazurin, Example 1), MRSA strains; type: cell-based; conditions: for IC50: read-out: IC50
Description: as §1, §2
Isolation and identification of methicillin-resistant Staphylococcus aureus (MRSA) strains. From March 2007 to March 2008, 35 screening swabs from nares (n=31), throat (n=3), Groin pus (n=1) were obtained from patients hospitalized at Chicoutimi hospital. Identification of S. aureus was performed using the Slidex Staph-Kit (bioMerieux Vitek, Inc., Hazelwood, Mo.) according to the manufacturer's instructions. Quality control was performed with MRSA strain ATCC 43300 and S. aureus strain ATCC 25923. In addition, S. aureus profile was determined with API Staph test strip with bacterial suspension of saline McFarland of 0.5 (bioMerieux, Durham, N.C.) according to the manufacturer's protocol. API Staph strips were held for 24 h before the results were read. A latex agglutination (SLIDEX) test detecting methicilin resistance in Staphylococci based on the production of low-affinity PBP2a, which is encoded by the mecA gene was performed on all strains. An antibiogram was also performed to confirm the identification of MRSA strains using disk diffusion test.
Antibiotic susceptibility testing using disk diffusion method. The antimicrobial activity of different classes of antibiotics of the potential MRSA was determined by diffusion method (Kirby-Bauer) as described by NCCLS. The antibiotics tested included: penicillin (10 units), amoxicillin/clavulanic acid (20/10 μg), ciprofloxacin (5 μg), moxifloxacin (5 μg), levofloxacin (5 μg), clindamycin (15 μg), erythromycin (15 μg), cefoxitin (30 μg), linezolid (30 μg), trimethoprim/sulfomethoxazole (1.25/23.75 μg), rifampicin (5 μg), gentamicin (10 μg) and vancomycin (30 μg). The agar medium had pH 7.2 to 7.4 before inoculing potentiel MRSA. The antibiotics were maintained at 8° C. or lower −14° C. according to manufacturer's recommendations. The pure culture was inoculated on a non-selective plate for 18-24 h. Each colony was collected with a wire loop and transfered the growth to a tube containing 4 to 5 mL of a tryptic-soy broth. The inoculum density was standarized with BaSO4 using 0.5 McFarland standard. All strains were incubated at 37° C. until it achieves or exceeds the turbidity of 0.5 McFarland standard. Inoculation of the dried surface (Muller-Hinton agar plate) by streaking the swab over the entire sterile agar surface. This procedure was repeated two more times. After 15 min, the appropriate disk were applied on the surface with a sterile forceps. The inverted plates was placed in a incubator at 37° C./air/16 to 18 h or 24 h for vancomycin. The inhibition zones were measured with a millimetric ruler. Interpretation of zone sizes by references of the manufacturer. Quality control organisms used were ATCC strains number 25923.
MRSA. Ten (10) strains of MRSA obtained as described above were tested along with an S. aureus wild type (WT) strain (ATCC25923).

O=C(CCc1ccccc1)c1c(O)cc(O)c(C/C=C/c2ccc(O)cc2)c1O [Compound III]
Minimum Inhibitory Concentration (MIC) (Streptococcus pyogenes; Strep. pyogenes 14149): (>200) μM | IC50 (Streptococcus pyogenes; Strep. pyogenes 14149): > 200000 nM | Minimum Inhibitory Concentration (MIC) (Streptococcus pyogenes; Strep. pyogenes 14152): (>200) μM | IC50 (Streptococcus pyogenes; Strep. pyogenes 14152): 174000 ± 10000 nM | activity against Streptococcus pyogenes strain 14152 (Streptococcus pyogenes; in words): active | Minimum Inhibitory Concentration (MIC) (S. aureus; S. aureus 14094): (5.5) μM | IC50 (S. aureus; S. aureus 14094): 2400 ± 200 nM | Minimum Inhibitory Concentration (MIC) (S. aureus; S. aureus 14108): (5.25) μM | IC50 (S. aureus; S. aureus 14108): 2700 ± 200 nM | Minimum Inhibitory Concentration (MIC) (S. aureus; S. aureus 14118): (3.46) μM | IC50 (S. aureus; S. aureus 14118): 2300 ± 100 nM | Minimum Inhibitory Concentration (MIC) (S. aureus; S. aureus 14154): (4.95) μM | IC50 (S. aureus; S. aureus 14154): 1500 ± 100 nM | IC50 (S. epidermidis; S. epidermidis 14069): 4500 ± 300 nM | Minimum Inhibitory Concentration (MIC) (S. epidermidis; S. epidermidis 14069): (10.9) μM | IC50 (S. epidermidis; S. epidermidis 14085): 3600 ± 400 nM | Minimum Inhibitory Concentration (MIC) (S. epidermidis; S. epidermidis 14085): (11.6) μM | IC50 (S. epidermidis; S. epidermidis 14093): 6300 ± 600 nM | Minimum Inhibitory Concentration (MIC) (S. epidermidis; S. epidermidis 14093): (8.43) μM | IC50 (S. epidermidis; S. epidermidis 14134): 3000 ± 600 nM | Minimum Inhibitory Concentration (MIC) (S. epidermidis; S. epidermidis 14134): (14.7) μM | IC50 (S. epidermidis; S. epidermidis 14143): 4410 ± 40 nM | Minimum Inhibitory Concentration (MIC) (S. epidermidis; S. epidermidis 14143): (9) μM | activity on S. epidermidis compared with ciprofloxacin (S. epidermidis; in words): more active than ciprofloxacin | Minimum Inhibitory Concentration (MIC) (Streptococcus agalactiae; Strep. agalactiae 14150): (>200) μM | IC50 (Streptococcus agalactiae; Strep. agalactiae 14150): 154000 ± 2000 nM | Minimum Inhibitory Concentration (MIC) (Streptococcus agalactiae; Strep. agalactiae 14151): (>200) μM | IC50 (Streptococcus agalactiae; Strep. agalactiae 14151): > 200000 nM | Minimum Inhibitory Concentration (MIC) (Streptococcus agalactiae; Strep. agalactiae 14153): (>200) μM | IC50 (Streptococcus agalactiae; Strep. agalactiae 14153): > 200000 nM | activity against Streptococcus agalactiae strain 14150 (Streptococcus agalactiae; in words): active | Minimum Inhibitory Concentration (MIC) (Enterococcus faecalis; Ent. Faecalis 14078): (>200) μM | IC50 (Enterococcus faecalis; Ent. Faecalis 14078): > 200000 nM | Minimum Inhibitory Concentration (MIC) (Enterococcus faecalis; Ent. Faecalis 14115): (>200) μM | IC50 (Enterococcus faecalis; Ent. Faecalis 14115): > 200000 nM | activity against Enterococcus faecalis (Enterococcus faecalis; in words): No activity | WS-1 (toxicity on normal cells, fibroblast) (WS-1 cell lines): 20 ± 3 | Minimum Inhibitory Concentration (MIC) (Corynebacterium jeikeium): (200) μM | IC50 (Corynebacterium jeikeium; read-out: IC50): 9000 ± 2000 nM | Minimum Inhibitory Concentration (MIC) (Streptococcus pneumoniae; Strep. pneumoniae 14070): (>200) μM | IC50 (Streptococcus pneumoniae; Strep. pneumoniae 14070): 124000 ± 5000 nM | Minimum Inhibitory Concentration (MIC) (Streptococcus pneumoniae; Strep. pneumoniae 14112): (190) μM | IC50 (Streptococcus pneumoniae; Strep. pneumoniae 14112): 89000 ± 5000 nM | Minimum Inhibitory Concentration (MIC) (Streptococcus pneumoniae; Strep. pneumoniae 14138): (>200) μM | IC50 (Streptococcus pneumoniae; Strep. pneumoniae 14138): > 200000 nM | Minimum Inhibitory Concentration (MIC) (Streptococcus pneumoniae; Strep. pneumoniae 14144): (>200) μM | IC50 (Streptococcus pneumoniae; Strep. pneumoniae 14144): > 200000 nM | Minimum Inhibitory Concentration (MIC) (Streptococcus pneumoniae; Strep. pneumoniae 14148): (200) μM | IC50 (Streptococcus pneumoniae; Strep. pneumoniae 14148): 93000 ± 7000 nM | activity against Streptococcus pneumoniae 14070 strain (Streptococcus pneumoniae; in words): active | activity against Streptococcus pneumoniae strain 14144 (Streptococcus pneumoniae; in words): not active | Minimum Inhibitory Concentration (MIC) ([1]; MRSA 1): (5.5) μM | IC50 ([1]; MRSA 1): 2400 ± 200 nM | Minimum Inhibitory Concentration (MIC) ([1]; MRSA 2): (4.89) μM | IC50 ([1]; MRSA 2): 2300 ± 200 nM | Minimum Inhibitory Concentration (MIC) ([1]; MRSA 3): (5.11) μM | IC50 ([1]; MRSA 3): 2200 ± 200 nM | Minimum Inhibitory Concentration (MIC) ([1]; MRSA 4): (4.53) μM | IC50 ([1]; MRSA 4): 2200 ± 200 nM | Minimum Inhibitory Concentration (MIC) ([1]; MRSA 5): (4.27) μM | IC50 ([1]; MRSA 5): 2300 ± 200 nM | Minimum Inhibitory Concentration (MIC) ([1]; MRSA 6): (5.03) μM | IC50 ([1]; MRSA 6): 2200 ± 200 nM | Minimum Inhibitory Concentration (MIC) ([1]; MRSA 7): (4.93) μM | IC50 ([1]; MRSA 7): 2400 ± 200 nM | Minimum Inhibitory Concentration (MIC) ([1]; MRSA 8): (4.98) μM | IC50 ([1]; MRSA 8): 2200 ± 200 nM | Minimum Inhibitory Concentration (MIC) ([1]; MRSA 9): (5.77) μM | IC50 ([1]; MRSA 9): 2300 ± 200 nM | Minimum Inhibitory Concentration (MIC) ([1]; MRSA 10): (5.31) μM | IC50 ([1]; MRSA 10): 2800 ± 200 nM
